{"source": "patent US10189803B2", "about": "“Synthesis of therapeutic and diagnostic drugs centered on regioselective and stereoselective ring opening of aziridinium ions” (ILLINOIS INSTITUTE OF TECHNOLOGY, priority 2008, dated 2019)", "key": {"[1]": {"assay": "In vitro serum stability of radiolabeled C-NE3TA complexes in human serum (SE-HPLC)", "type": "in vitro ADME", "settings": "37° C., up to 11 days", "description": "C-NE3TA was radiolabeled with ^90Y, ^177Lu, ^203Pb, ^205/6Bi, or ^153Gd as previously described (Chong, H. S.; Milenic, D. E.; Garmestani, K.; Brady, E. D.; Arora, H.; Pfiester, C.; Brechbiel, M. W., Nucl. Med. Biol. 2006, 33, 459-67; Chong H S, Garmestani K, Bryant Jr., L H Milenic D E, Overstreet T, Birch N, Le N, Brady E D, Brechbiel M W. J. Med. Chem. 2006, 49, 2055-2062). In vitro serum stability of the radiolabeled complexes purified via ion-exchange chromatography was performed to determine if C-NE3TA labeled with the radioisotopes remained stable without transchelation or loss of their respective radionuclide in human serum. This was assessed by measuring the transfer of radionuclide from the complex to serum proteins over the course of 11 days.\nIn vitro stability of the radiolabeled metal complexes. The stability of the purified radiolabeled complexes was evaluated in human serum (Gemini Bioproducts, Woodland, Calif.) for up to 11 days. The serum stability of the radiolabeled complexes was assessed by measuring the transfer of the radionuclide from each complex to serum proteins using SE-HPLC methods. Radiolabeled complexes were diluted to an appropriate volume that allowed for preparation of multiple samples containing 5-10 μCi and were filter-sterilized using a Millex-GV 0.22 μm filter. This stock solution was then mixed with 1400 μL of sterile normal human serum. Aliquots (200 μL) were drawn and separated into individual tubes for subsequent analysis using aseptic technique. The samples were incubated at 37° C., and at designated intervals, subjected to analysis by SE-HPLC. Samples were loaded onto the HPLC and eluted with PBS, pH 7.4 isocratically at 1 mL/min. […] Radioactivity associated with a transfer to serum proteins generally appeared at ˜6 min."}, "[2]": {"assay": "In vivo biodistribution of radiolabeled complexes in normal athymic mice", "settings": "non-tumor bearing mice, ± SD", "description": "The in vivo stability of the radiolabeled complexes was evaluated by performing biodistribution studies in normal athymic mice. Selected organs and the blood were harvested at five time points, 0.5, 1, 4, 8, and 24 h post-injection and the radioactivity measured. […] C-NE3TA radiolabeled with ^153Gd was almost completely cleared from blood, liver, spleen, lung, heart, and femur in less than 4 hours, and radioactivity level in the kidney was 0.16%±0.11 ID/g at 24 hour post-injection (Table 9).\nIn vivo biodistribution studies oh the radiolabeled metal complexes. Female athymic mice were obtained from Charles River Laboratories (Wilmington, Mass.) at 4-6 weeks of age. The pH of the radiolabeled ligands was adjusted to pH ˜7.0 with 0.5 M sodium bicarbonate (pH 10.5) and diluted in phosphate-buffered saline. The radiolabeled ligands ([…] for ^86Y, ^205/6Bi, ^177Lu, and ^203Pb) were administered to the mice in 200 μL of solution via tail vein injection. The mice (5 per data point) were sacrificed by exsanguination at 0.5, 1, 4, 8, and 24 h. Blood and the major organs were harvested, wet-weighed and the radioactivity measured in a γ-scintillation counter (1480 Wizard, Perkin Elmer). The percent injected dose per gram (% ID/g) was determined for each tissue. The values presented are the mean and standard deviation for each tissue."}}, "note": "Several values for one entry are separate records, joined by “and”; a condition that tells them apart may be missing. Equal entries are not always repeated.", "data": [{"smiles": "O=C(O)CNC(Cc1ccc([N+](=O)[O-])cc1)CN1CCN(CC(=O)O)CCN(CC(=O)O)CC1.[153Gd]", "note": "(stereo not drawn) [^153Gd-C-NE3TA]", "values": [{"measurement": "stability in human serum (in words)", "setting": "[1]", "result": "no measurable loss of radioactivity"}, {"measurement": "percent injected dose per gram, Blood", "setting": "[2]; 0.50 hr", "result": "1.41 ± 0.57", "unit": "% ID/g"}, {"measurement": "percent injected dose per gram, Femur", "setting": "[2]; 0.50 hr", "result": "0.43 ± 0.14", "unit": "% ID/g"}, {"measurement": "percent injected dose per gram, Heart", "setting": "[2]; 0.50 hr", "result": "0.43 ± 0.16", "unit": "% ID/g"}, {"measurement": "percent injected dose per gram, Kidney", "setting": "[2]; 0.50 hr", "result": "4.28 ± 1.33", "unit": "% ID/g"}, {"measurement": "percent injected dose per gram, Liver", "setting": "[2]; 0.50 hr", "result": "1.74 ± 0.69", "unit": "% ID/g"}, {"measurement": "percent injected dose per gram, Lung", "setting": "[2]; 0.50 hr", "result": "0.91 ± 0.28", "unit": "% ID/g"}, {"measurement": "percent injected dose per gram, Spleen", "setting": "[2]; 0.50 hr", "result": "0.50 ± 0.37", "unit": "% ID/g"}, {"measurement": "percent injected dose per gram, Blood", "setting": "[2]; 1.00 hr", "result": "0.20 ± 0.08", "unit": "% ID/g"}, {"measurement": "percent injected dose per gram, Femur", "setting": "[2]; 1.00 hr", "result": "1.30 ± 0.58", "unit": "% ID/g"}, {"measurement": "percent injected dose per gram, Heart", "setting": "[2]; 1.00 hr", "result": "0.14 ± 0.06", "unit": "% ID/g"}, {"measurement": "percent injected dose per gram, Kidney", "setting": "[2]; 1.00 hr", "result": "1.13 ± 0.12", "unit": "% ID/g"}, {"measurement": "percent injected dose per gram, Liver", "setting": "[2]; 1.00 hr", "result": "0.58 ± 0.22", "unit": "% ID/g"}, {"measurement": "percent injected dose per gram, Lung", "setting": "[2]; 1.00 hr", "result": "0.32 ± 0.09", "unit": "% ID/g"}, {"measurement": "percent injected dose per gram, Spleen", "setting": "[2]; 1.00 hr", "result": "0.24 ± 0.05", "unit": "% ID/g"}, {"measurement": "percent injected dose per gram, Blood", "setting": "[2]; 4.00 hr", "result": "0.00 ± 0.00", "unit": "% ID/g"}, {"measurement": "percent injected dose per gram, Femur", "setting": "[2]; 4.00 hr", "result": "0.02 ± 0.01", "unit": "% ID/g"}, {"measurement": "percent injected dose per gram, Heart", "setting": "[2]; 4.00 hr", "result": "0.01 ± 0.00", "unit": "% ID/g"}, {"measurement": "percent injected dose per gram, Kidney", "setting": "[2]; 4.00 hr", "result": "0.52 ± 0.04", "unit": "% ID/g"}, {"measurement": "percent injected dose per gram, Liver", "setting": "[2]; 4.00 hr", "result": "0.03 ± 0.01", "unit": "% ID/g"}, {"measurement": "percent injected dose per gram, Lung", "setting": "[2]; 4.00 hr", "result": "0.03 ± 0.00", "unit": "% ID/g"}, {"measurement": "percent injected dose per gram, Spleen", "setting": "[2]; 4.00 hr", "result": "0.02 ± 0.00", "unit": "% ID/g"}, {"measurement": "percent injected dose per gram, Blood", "setting": "[2]; 8.00 hr", "result": "0.00 ± 0.00", "unit": "% ID/g"}, {"measurement": "percent injected dose per gram, Femur", "setting": "[2]; 8.00 hr", "result": "0.02 ± 0.00", "unit": "% ID/g"}, {"measurement": "percent injected dose per gram, Heart", "setting": "[2]; 8.00 hr", "result": "0.01 ± 0.00", "unit": "% ID/g"}, {"measurement": "percent injected dose per gram, Kidney", "setting": "[2]; 8.00 hr", "result": "0.38 ± 0.06", "unit": "% ID/g"}, {"measurement": "percent injected dose per gram, Liver", "setting": "[2]; 8.00 hr", "result": "0.02 ± 0.00", "unit": "% ID/g"}, {"measurement": "percent injected dose per gram, Lung", "setting": "[2]; 8.00 hr", "result": "0.02 ± 0.00", "unit": "% ID/g"}, {"measurement": "percent injected dose per gram, Spleen", "setting": "[2]; 8.00 hr", "result": "0.02 ± 0.00", "unit": "% ID/g"}, {"measurement": "percent injected dose per gram, Blood", "setting": "[2]; 24.00 hr", "result": "0.00 ± 0.00", "unit": "% ID/g"}, {"measurement": "percent injected dose per gram, Femur", "setting": "[2]; 24.00 hr", "result": "0.01 ± 0.00", "unit": "% ID/g"}, {"measurement": "percent injected dose per gram, Heart", "setting": "[2]; 24.00 hr", "result": "0.13 ± 0.27", "unit": "% ID/g"}, {"measurement": "percent injected dose per gram, Kidney", "setting": "[2]; 24.00 hr", "result": "0.16 % ID/g and 0.16 ± 0.11 % ID/g"}, {"measurement": "percent injected dose per gram, Liver", "setting": "[2]; 24.00 hr", "result": "0.02 ± 0.01", "unit": "% ID/g"}, {"measurement": "percent injected dose per gram, Lung", "setting": "[2]; 24.00 hr", "result": "0.01 ± 0.01", "unit": "% ID/g"}, {"measurement": "percent injected dose per gram, Spleen", "setting": "[2]; 24.00 hr", "result": "0.01 ± 0.01", "unit": "% ID/g"}]}]}
